Patent US11414488B2, “Methods for treating cancer” (BicycleRD Limited, priority 2019, dated 2022)
Like-named read-outs stand apart in the source and are kept apart here.

How the values were obtained:
[1] = Tolerability and deaths in E0771 study (Example 3); type: in vivo, Mouse; conditions: single agent paclitaxel 15 mg/kg; considered non-specific deaths, treatment not completely ruled out
Text: Animals euthanized during the same period for other causes (sampling, accidental trauma, etc.) are excluded from this calculation. […] (Group toxicity parameter)

[2] = tested on: orthotopic E0771 murine mammary carcinoma; conditions: for anti-tumor activity (in words): BT17BDC-18 at 6.2 mg/kg or 4.8 mg/kg, anti-mPD-1 10 mg/kg, paclitaxel 15 mg/kg
Text: The purpose of this study was to evaluate the anti-cancer activity of BT17BDC-18 alone and in combination with anti-mPD-1 against established orthotopic E0771 murine mammary carcinoma in female C57BL/6 mice.
All mice were sorted into study groups based on caliper estimation of tumor burden. The mice were distributed to ensure that the mean tumor burden for all groups was within 10% of the overall mean tumor burden for the study population.
All animals weighed at least 16.6 g at the initiation of therapy. […] A tumor burden of 2000 mm^3, was chosen for evaluation of efficacy by time to progression (time to euthanasia/death).
Treatment-related weight change—This is a group endpoint calculated from the group mean body weights. It is calculated differently for specific circumstances as follows: • If (at any point between the first day of treatment and two weeks after the final treatment) the mean group body weight decreases by more than 2%, the maximum weight loss is reported, even if body weight eventually rebounded during treatment to a net weight gain. […] To assess the contribution of test agents to weight loss, Net Treatment Related Weight Loss may be used. […] When this occurs, net weight loss is calculated by normalizing for tumor burden. We do this by constructing a plot of control group mean tumor burden vs control group mean weight loss, using all of the weight data available for the control group. […] This value is then subtracted from the mean weight loss in the treated group to generate the net weight loss for the treated group on that day. The calculated net weight loss is then used to estimate the tolerance to the drug.
Time to Progression (TP)—Time to progression is a surrogate for lifespan, time on study, or lifespan. It is used for studies that involve IACUC mandated euthanasia of animals for excessive tumor burdens (even if the animals otherwise appear normal). The mandated tumor burden limit is tumor model dependent. TP data is analyzed by Kaplan Meier methods just as traditional life span data. The Time to Progression for an individual animal is the number of days between initiation of treatment and the death or required euthanasia of that animal. […] This puts all animals on the same footing, and removes the impact of possibly delayed euthanasia (which may occur for sampling, or weekends and holidays). Animals euthanized for scheduled sampling or other causes unrelated to disease progression or therapy are excluded from this calculation. The median Time to Progression for a group is used to calculate the % Increase in Time to Progression (% ITP).
% Increase in Time to Progression (% ITP)—% ITP is a group endpoint.
Complete Regression (CR)—An animal is credited a complete regression if its tumor burden is reduced to an immeasurable volume at any point after the first treatment. Our convention is to record any tumor measurement less than 5 mm as a “0.” The CR must be maintained for at least 2 consecutive measurements. This is in keeping with the convention of the NCI and reflects the inherent and unacceptably high mechanical error in such measurements in addition to the uncertain biology of what is measured at those small sizes.

[3] = BT17BDC-18 6.2 mg/kg IV Q7Dx4, anti-mPD-1 10 mg/kg IP, paclitaxel 15 mg/kg IV Q7Dx4, alone or combined

CC(=O)O[C@H]1C(=O)[C@@]2(C)[C@H]([C@H](OC(=O)c3ccccc3)[C@]3(O)C[C@H](OC(=O)[C@H](O)[C@@H](NC(=O)c4ccccc4)c4ccccc4)C(C)=C1C3(C)C)[C@]1(OC(C)=O)CO[C@@H]1C[C@@H]2O [Paclitaxel]
deaths in group [1]: two | % increase in time to progression [2, 3]: 17.9% | Day 36 median ΔT/ΔC [2, 3]: 94% | increase in time to progression [2, 3]: 4.0 days | anti-tumor activity (in words) [2]: Poor response | anti-tumor activity (in words) ([2]; listed as paclitaxel): mildly active
